Where a SMILES comes first, the peptide text is derived from it.
Columns and labels:
[1] = tested on: Aβ25-35-induced spatial working memory deficits; experiment: Place learning in the Morris water-maze (MWM), D09-D14; assay type: in vivo, mice; details: IP 2 mg/kg once a day
Procedure: The examples are using a model of Tauopathies. In this model, mice were injected intracerebroventricularly (ICV) at Day 01 (D01) with Aβ25-35 peptide (or with scrambled-Aβ peptide (Sc.Aβ) for Sham animals). This severe animal model recapitulates modulations of specific biomarkers (including deposits of brain Amyloid Beta1-42 and hyperphosphorylated Tau protein) involved in the physiopathology and the progression of human Tauopathies, as well as strong cognitive deficits (memory loss) as encountered by the patients (Maurice et al., 1996, 1998, 2013; Meunier et al., 2006).
After the Y-Maze and instead of performing the STPA test, some animals performed the Morris Water-Maze (MWM) test in order to assess spatial working memory deficits (a six-day test from D09 to D14). This gold-standard test consists in a circular pool filled with opaque water placed in a room with external cues (sink, contrasted posters, shelves). A platform is immersed under the water surface during acquisition. Training consists in 3 swims per day for 5 days, performed between D09 to D13, with a 20 min inter-trial time. Each mouse is allowed to swim for 90 sec in order to find the platform, and to stay on it for 20 sec.
A probe test (PT) is performed 24 h after the last swim on D14. For the PT, the platform is removed, and each animal is allowed to swim for 60 sec. The start position for each mouse corresponds to one of two positions remote from the platform location in a counterbalanced order. The platform quadrant is named ‘target’ and other quadrants (opposite, adjacent right and adjacent left) are named ‘other’ during the PT. The time spent in each quadrant is recorded. The results are expressed as the percentage of time spent in the target quadrant compared to the mean percentage of time spent in the three other quadrants.
Every day, the latencies to find the platform during the first (swim1), second (swim2), third (swim3), […] trials were monitored and averaged in this six-day experiment (Maurice et al., 2013).

[2] = Preliminary in vitro conversion of NX210 in rat plasma; assay type: in vitro ADME
[3] = tested on: Aβ1-42 (amyloid-beta 1-42); experiment: Brain biomarker assessment, hippocampus ELISA, D11; assay type: in vivo, mice
Procedure: (§1) In order to evaluate potential biological effects of NX210 or NX218 treatments on pathological biomarkers, mice from the Sc.Aβ / Vhc (n=6), Aβ25-35 / Vhc (n=6), Aβ25-35 / NX210 IP 2 mg/kg (n=5) and Aβ25-35 / NX218 IP 2 mg/kg (n=5) groups were sacrificed under anesthesia ten days after ICV injection of Aβ25-35 peptide (D11) and daily compound administrations (once a day).
(§2) For each mouse, the brain was quickly removed and dissected out on an ice-cold metal plate into 2 hemi-hippocampi, 2 hemi-frontal cortices and the rest of brain. Straight after each collection, brain samples were frozen on dry ice and stored at -80° C. After thawing, brain structures were dissociated in 50 mM Tris-150 mM NaCl buffer, pH 7.5, and sonicated for 20 sec. After centrifugation, supernatants containing proteins were used for ELISA assays according to the manufacturer’s instructions (see below). • For Aβ1-42 (amyloid-beta 1-42), use of the left hippocampus, ELISA kit from Cloud-Clone Corp., ref: CEA946Mu; batch: L190107385 • For pTau (phosphorylated Tau protein), use of the left hippocampus, ELISA kit from Fisher Scientific, ref: 10591255; batch: 187860001
(§3) For all assays, the absorbance was read at 450 nm and each sample concentration was calculated by using a specific standard curve. All samples were run in duplicate and the average of these duplicates was used for calculations.

[4] = tested on: pTau (phosphorylated Tau protein); experiment: Brain biomarker assessment, hippocampus ELISA, D11; assay type: in vivo, mice
Procedure: as §1, §2, §3

[5] = tested on: Aβ25-35-induced short-term memory deficits; experiment: Spontaneous alternation performance (Y-maze), treatment started 1 hour after Aβ25-35 injection, tested D08; assay type: in vivo, mice; details: for Y-maze % (Sc.Aβ / Vhc = 100) / Y-maze Mean, percentage of alternation: D08
[6] = tested on: Aβ25-35-induced long-term memory deficits; experiment: Step-through passive avoidance test (STPA), D09-D10; assay type: in vivo, mice
[7] = 2 mg/kg once a day for ten days
[8] = IP 2 mg/kg once a day, left hippocampus, D11
[9] = IP 2 mg/kg every other day (1/2d)
[10] = IP 3.75 mg/kg every other day (1/2d)
[11] = once a day, NX210 0.1 mg/kg, NX218 0.1 mg/kg, DPZ 0.25 mg/kg

N=C(N)NCCC[C@H](NC(=O)[C@H](CO)NC(=O)[C@H](CS)NC(=O)[C@H](CO)NC(=O)[C@H](CO)NC(=O)[C@H](Cc1c[nH]c2ccccc12)NC(=O)CNC(=O)[C@H](CO)NC(=O)[C@@H](N)Cc1c[nH]c2ccccc12)C(=O)N[C@@H](CO)C(=O)N[C@@H](CS)C(=O)NCC(=O)O [NX210, W-S-G-W-S-S-C-S-R-S-C-G] (H-WSGWSSCSRSCG-OH; N-terminus and C-terminus assumed)
effect on learning profile and spatial memory deficits (MWM), in words [1]: significantly rescued
MWM - Probe test, mean percentage of time spent in the three other quadrants (Other) ([1]; D14): 20.30%
MWM - Learning profile, Mean time spent to find the platform (last block, heading missing) ([1]; fifth training day): 24.25 s
MWM - Learning profile - Day 1, Mean time spent to find the platform ([1]; training Day 1): 79.67 s
MWM - Learning profile - Day 2, Mean time spent to find the platform ([1]; training Day 2): 53.58 s
MWM - Learning profile - Day 3, Mean time spent to find the platform ([1]; training Day 3): 35.83 s
MWM - Learning profile - Day 4, Mean time spent to find the platform ([1]; training Day 4): 25.92 s
conversion by oxidation in rat plasma, in words [2]: rapidly converted into NX218
effect on brain Aβ1-42 vs Aβ25-35 / Vhc group, in words [3, 7]: significantly decreased
Aβ1-42 %, percentage of the control group (Sc.Aβ / Vhc) [3, 8]: 107%
Aβ1-42 Mean [3, 8]: 24.25
effect on brain pTau vs Aβ25-35 / Vhc group, in words [4, 7]: significantly decreased
pTau %, percentage of the control group (Sc.Aβ / Vhc) [4, 8]: 151%
pTau Mean [4, 8]: 90.21
effect on spatial short-term working memory deficits (Y-maze), in words ([5]; 1, 2 and 3.75 mg/kg IP, once a day or every other day): significantly rescued
Y-maze % (Sc.Aβ / Vhc = 100) ([5]; IP 0.1 mg/kg once a day): 60%
Y-maze Mean, percentage of alternation ([5]; IP 0.1 mg/kg once a day): 44.52%
Y-maze % (Sc.Aβ / Vhc = 100) ([5]; IP 1 mg/kg once a day): 79%
Y-maze Mean, percentage of alternation ([5]; IP 1 mg/kg once a day): 58.16%
Y-maze % (Sc.Aβ / Vhc = 100) [5, 9]: 100%
Y-maze Mean, percentage of alternation [5, 9]: 74.35%
Y-maze % (Sc.Aβ / Vhc = 100) ([5]; IP 2 mg/kg once a day): 98%
Y-maze Mean, percentage of alternation ([5]; IP 2 mg/kg once a day): 72.67%
Y-maze % (Sc.Aβ / Vhc = 100) [5, 10]: 98%
Y-maze Mean, percentage of alternation [5, 10]: 72.62%
Y-maze % (Sc.Aβ / Vhc = 100) ([5]; IP 3.75 mg/kg once a day): 96%
Y-maze Mean, percentage of alternation ([5]; IP 3.75 mg/kg once a day): 70.90%
restoration of short-term memory to Sham level (Y-maze), in words ([5]; NX210 at 2 and 3.75 mg/kg, NX218 at 1, 2 and 3.75 mg/kg): complete restoration
effect on Aβ25-35-induced short-term memory deficits (Y-maze) at subactive dose, in words [5, 11]: do not impede
EL % (Sc.Aβ / Vhc = 100) ([6]; IP 0.1 mg/kg once a day): 449%
EL Mean, escape latency, retention session ([6]; IP 0.1 mg/kg once a day): 89.42 s
STL % (Sc.Aβ / Vhc = 100) ([6]; IP 0.1 mg/kg once a day): 42%
STL Mean, step-through latency, retention session ([6]; IP 0.1 mg/kg once a day): 118.92 s
EL % (Sc.Aβ / Vhc = 100) ([6]; IP 1 mg/kg once a day): 267%
EL Mean, escape latency, retention session ([6]; IP 1 mg/kg once a day): 53.08 s
STL % (Sc.Aβ / Vhc = 100) ([6]; IP 1 mg/kg once a day): 63%
STL Mean, step-through latency, retention session ([6]; IP 1 mg/kg once a day): 177.92 s
EL % (Sc.Aβ / Vhc = 100) [6, 9]: 110%
EL Mean, escape latency, retention session [6, 9]: 22.00 s
STL % (Sc.Aβ / Vhc = 100) [6, 9]: 93%
STL Mean, step-through latency, retention session [6, 9]: 263.33 s
EL % (Sc.Aβ / Vhc = 100) ([6]; IP 2 mg/kg once a day): 156%
EL Mean, escape latency, retention session ([6]; IP 2 mg/kg once a day): 31.17 s
STL % (Sc.Aβ / Vhc = 100) ([6]; IP 2 mg/kg once a day): 88%
STL Mean, step-through latency, retention session ([6]; IP 2 mg/kg once a day): 248.33 s
EL % (Sc.Aβ / Vhc = 100) [6, 10]: 119%
EL Mean, escape latency, retention session [6, 10]: 23.75 s
STL % (Sc.Aβ / Vhc = 100) [6, 10]: 94%
STL Mean, step-through latency, retention session [6, 10]: 264.75 s
EL % (Sc.Aβ / Vhc = 100) ([6]; IP 3.75 mg/kg once a day): 139%
EL Mean, escape latency, retention session ([6]; IP 3.75 mg/kg once a day): 27.67 s
STL % (Sc.Aβ / Vhc = 100) ([6]; IP 3.75 mg/kg once a day): 90%
STL Mean, step-through latency, retention session ([6]; IP 3.75 mg/kg once a day): 255.50 s
effect on contextual long-term memory deficits (STL and EL), in words ([6]; NX210 2 and 3.75 mg/kg, NX218 1, 2 and 3.75 mg/kg, once a day or every other day): fully rescued
effect on contextual long-term memory deficits (STL and EL) at subactive dose, in words [6, 11]: do not impede

— patent US20230212225A1, “PEPTIDE COMPOSTIONS AND METHODS FOR TREATING TAUOPATHIES” (AXOLTIS PHARMA, priority 2019, published 2023)
